Results as given in patent US7749980B2, “Non-nucleotide compositions and method for treating pain” (Inspire Pharmaceuticals, Inc., priority 2003, dated 2010).

System: mice
Experiment: acetic acid-induced abdominal constriction assay for visceral pain in mice
Assay type: in vivo
Conditions: for number of averaged abdominal constrictions during the observation time interval compared to saline control: 50 mg/kg i.p. in physiological saline, 10 minutes prior to i.p. 0.9% acetic acid, 10 minutes of observation starting 5 minutes after acetic acid, statistical difference versus saline control group; for pharmacological effect over saline vehicle control in reducing the abdominal constrictions induced by 0.9% acetic acid: similar studies, dose dependence
Source text: The method employed is a modification of the abdominal constriction test described by Collier, et. al (Collier, et al., Br. J. Pharmacol. Chemother. 32: 295-310 (1968)). For the rest of the example, compound: 6-(phenylureido)purine-2′, 3′-(4-ethylcyclohexylspiroketyl)-5′-nicotinyl-ribofuranoside is named “Compound A” and {6-[6-(Cyclohexylmethyl-amino)-purin-9-yl]-2-isobutyl-tetrahydro-furo[3,4-d][1,3]dioxol-4-yl}-methanol is named “Compound B”.
Briefly, a group of eight mice is designated as the control group, and each of said mice in the group receives an intraperitoneal (i.p.) injection of physiological saline in a dose-volume: mouse-weight ratio of 5 mL/kg ten minutes prior to an i.p. injection of 0.9% acetic acid in physiological saline in a dose-volume: mouse-weight ratio of 10 mL/kg. Each of said mice in the control group is placed in its own observation chamber shortly after the acetic acid injection and is allowed to explore. Each testing period starts 5 minutes after the acetic acid injection into a mouse, and consists of 10 minutes of observation during which time the number of abdominal constrictions of the mouse are counted. Abdominal constriction is defined as a lengthwise stretching of the torso with concave arching of the back. An average number of total constrictions per mouse per observation time is calculated from mice in the control group, and this indicates a baseline level of pain response in the control group animals.
Compound A is administered i.p., at a dose of 50 mg/kg suspended in a volume of physiological saline (5 mL/kg), 10 minutes prior to the administration of acetic acid, as described for the control group above.
Compound B is administered i.p., at a dose of 50 mg/kg suspended in a volume of physiological saline (5 mL/kg), 10 minutes prior to the administration of acetic acid, as described for the control group above.

Row | Molecule | number of averaged abdominal constrictions during the observation time interval compared to saline control | pharmacological effect over saline vehicle control in reducing the abdominal constrictions induced by 0.9% acetic acid
1 | 6-(phenylureido)purine-2′, 3′-(4-ethylcyclohexylspiroketyl)-5′-nicotinyl-ribofuranoside [Compound A] | lower | dose dependent pharmacological effect
2 | CC(C)CC1OC2C(CO)OC(n3cnc4c(NCC5CCCCC5)ncnc43)C2O1 (stereo not shown) [Compound B, {6-[6-(Cyclohexylmethyl-amino)-purin-9-yl]-2-isobutyl-tetrahydro-furo[3,4-d][1,3]dioxol-4-yl}-methanol] | lower | dose dependent pharmacological effect
